Measured values: publication PMC7178524, “Comparative Pharmacokinetic Profiles of Puerarin in Rat Plasma by UHPLC-MS/MS after Oral Administration of Pueraria lobata Extract and Pure Puerarin” (Journal of Analytical Methods in Chemistry, 2020)

Experiments:
[1] = Pharmacokinetics of PUR in rat plasma after single oral administration, UHPLC-MS/MS; format: in vivo, male Wistar rats
Experimental: Male Wistar rats (250−270 g) were purchased from the SPF (Beijing) Biotechnology Co., Ltd. (Beijing, China). The rats were then housed in an animal room to adapt to the environment for a week at standard temperature (23−28°C), humidity (50−65%), free diet, and tap water. Rats were fasted for 12 h before pharmacokinetic experiments and allowed free access to water and sugar during sample collection. Both PUR and PLE were dispersed in a 0.5% carboxymethyl cellulose solution and then sonicated to obtain a homogeneous suspension. A whole blood sample was collected from the infraorbital vein and immediately centrifuged at 3,500 rpm for 10 minutes at 4°C to obtain plasma. Plasma was stored at −20°C for later analysis. The experimental protocol was approved by the Animal Experiment Ethics Review Committee of Jiangsu Vocational College of Medicine.
Chromatographic separation was performed using a Waters Acquity UHPLC system with an Acquity HSS T3 column (1.8 μm, 2.1 × 50 mm, Waters, Milford, MA). Mobile phase A consists of 0.1% aqueous formic acid solution, and mobile phase B consists of 0.1% formic acid acetonitrile. The gradient elution was as follows: 0 to 0.5 min, a linear gradient from 10 to 15% B; 0.5 to 2 min, 15 to 40% B; 2 to 4 min, 40 to 80% B; 4.1 to 5 min, 80 to 99% B; 5.1 to 7 min, a linear gradient back to 10% B. The flow rate was 0.3 mL/min. The column temperature was maintained at 40 °C, and the sample storage compartment was maintained at 4°C. Under these conditions, PUR and berberine hydrochloride were eluted at 2.0 and 3.2 minutes, respectively.
Mass spectrometric detection was performed on a Waters TQD tandem mass spectrometer equipped with an electrospray ionization (ESI) source. The mass spectrometer was operated in multiple reaction monitoring (MRM) positive-ion mode and was quantified using the following transitions: m/z 417.1 > 297.0 for PUR and m/z 336.0 > 320.0 for berberine hydrochloride, and the mass fragment spectrum of PUR and berberine hydrochloride is shown in Figure 2. For all transitions, the cone voltage of 35 V and a collision energy of 30 eV for both PUR and berberine hydrochloride were used, as shown in Table 1. The capillary voltage was set at 2.8 kV, and the source temperature was maintained at 500°C with a gas flow rate of 850 L/h. Argon is used as the collision gas. The cone gas flow was set at 50 L/h. Data acquisition were performed with MassLynx^TM software version 4.1, and quantitation was performed using TargetLynx^TM (Waters, Milford, MA, USA).
Rat plasma sample (100 μL) and IS solution (20 μL, 100 ng/mL) were added to a 1.5 mL Eppendorf tube and vortex-mixed for 30 s, followed by adding 500 μL of acetonitrile to precipitate protein. The mixture was then vortex-mixed for 2 min and centrifuged at 10,000 rpm for 10 min. The supernatant was evaporated to dryness under a stream of nitrogen gas. The obtained residue was reconstituted with methanol-water (80 : 20, v/v), then vortex-mixed for 3min and centrifuged at 13,000 rpm for 10 min. Finally, a 2 μL sample of the supernatant was injected into the UHPLC-MS/MS system for analysis.
The validated method was applied to determine the plasma concentration of PUR in rats after single oral administration of PLE at a dose of 763 mg/kg (equivalent to 100.0 mg/kg of PUR, 1 mL/100g BW) or administration of PUR at a dose of 100 mg/kg (1 mL/100g BW). Twelve male Wistar rats were randomly divided into two groups of six rats each and fasted for 12 h before the experiment. The whole blood samples were collected in heparinized tubes through the suborbital vein of rat at 0.25, 0.5, 0.75, 1, 1.5, 2, 3, 4, 6, 8, 12, 24, 36, and 48 h after gavage administration of drugs. The blood samples were immediately centrifuged at 3,500 rpm for 10 min to obtain plasma. Plasma was stored at −20°C until analysis. […]

P-gp = conditions: after added verapamil (P-gp inhibitor); ref "Studies have found", no number given; cited from earlier work
MRP2 = conditions: after added probenecid (MRP2 inhibitor); ref "Studies have found", no number given; cited from earlier work
[2] = Stability of PUR in rat plasma (QC samples, four storage conditions); format: in vitro ADME; conditions: for Stability (RE, %) Postextraction: extracted rat plasma sample, auto sampler 4°C for 24 h; for Stability (RE, %) Postextraction / Stability (RE, %) 23°C–28°C/24 h / Stability (RE, %) −20°C/30 day / Stability (RE, %) Freeze-thaw (3 cycles): n = 3; for Stability (RE, %) 23°C–28°C/24 h / Stability (RE, %) −20°C/30 day / Stability (RE, %) Freeze-thaw (3 cycles): rat plasma; for Stability (RE, %) Freeze-thaw (3 cycles): −20°C to 25°C
Experimental: The stock solutions of PUR at a concentration of 200 μg/mL were prepared with methanol. A series of working solutions (4000, 1000, 400, 200, 100, and 40 ng/mL) were then prepared by diluting the stock solution with methanol. A 100 μg/mL IS stock solution was also prepared with methanol. A working solution of IS was prepared at a concentration of 100 ng/mL by diluting the stock solution with methanol. A standard calibration curve was prepared by adding 20 μL of the abovementioned PUR working solution and 20 μL of the IS working solution to 100 μL of blank plasma. The final plasma concentrations of PUR were in the concentration ranges of 800, 200, 80, 40, 20, and 8 ng/mL. QC samples of low, medium, and high concentrations (8, 80, and 720 ng/mL) of PUR were also prepared following the same procedure as described above. All solutions were kept at 4°C until use.
The stability of the PUR in rat plasma was investigated by analyzing QC samples under four different storage conditions, including three freeze-thaw cycles, room temperature 23−28°C for 24 h, −20°C for 30 days, and postextraction stability after the extracted samples being stored in the auto sampler at the temperature 4°C for 24 h. If the accuracy deviation was within ± 15%, the PUR was considered stable.

[3] = parameters: method as in PMID 29099639, PMID 29790819; conditions: coadministered with PUR, compared with the control group; cited from earlier work
[4] = male, Wistar, PUR in rat plasma, oral PUR 100 mg/kg, n = 6, mean ± SD

For O=c1c(-c2ccc(O)cc2)coc2c([C@@H]3O[C@H](CO)[C@@H](O)[C@H](O)[C@H]3O)c(O)ccc12 [PUR, daidzein-8-C-glucoside], the AUC(0-inf) [1, 4] was 220 ± 64.4 ng·h/mL, the AUC(0-t) [1, 4] was 213 ± 61.9 ng·h/mL and the Tmax [1, 4] was 1.46 ± 1.08 h. It also gave a half-life [1, 4] of 1.6 ± 0.38 h, a CL/F ([1]; male, Wistar, PUR in rat plasma, oral PUR 100 mg/kg, n = 6, mean ± SD, read-out: CLz/F (converted)) of 509 L/h/kg and an MRT last ([1]; male, Wistar, PUR in rat plasma, oral PUR 100 mg/kg, n = 6, mean ± SD, read-out: MRT 0-t) of 2.22 ± 0.46 h. For the same compound, the Vd/F ([1]; male, Wistar, PUR in rat plasma, oral PUR 100 mg/kg, n = 6, mean ± SD, read-out: Vz/F) was 1200 ± 403 L/kg, the Cmax ([1]; male, Wistar, rat plasma, oral puerarin 100 mg/kg, abstract, read-out: maximum concentration (Cmax) of puerarin) was 102 ± 41.8 ng/mL and the “shape of plasma concentration-time curve of PUR” value ([1]; oral pure PUR 100 mg/kg, rats) was “no double-peak phenomenon”. The “increase of intestinal absorption of PUR” value (P-gp) was 2.7 times, the “increase of intestinal absorption of PUR” value (MRP2) was 2.3 times and the “Stability (RE, %) Postextraction” value ([2]; 8.0 ng/mL) was −7.7%. For the same compound, the “Stability (RE, %) Postextraction” value ([2]; 80.0 ng/mL) was −6.3%, the “Stability (RE, %) Postextraction” value ([2]; 720.0 ng/mL) was 5.9% and the “Stability (RE, %) 23°C–28°C/24 h” value ([2]; 8.0 ng/mL) was 11.5%. For the same compound, the “Stability (RE, %) −20°C/30 day” value ([2]; 8.0 ng/mL) was 11.4%, the “Stability (RE, %) Freeze-thaw (3 cycles)” value ([2]; 8.0 ng/mL) was 9.3% and the “Stability (RE, %) 23°C–28°C/24 h” value ([2]; 80.0 ng/mL) was 6.5%. For the same compound, the “Stability (RE, %) −20°C/30 day” value ([2]; 80.0 ng/mL) was 6.2%, the “Stability (RE, %) Freeze-thaw (3 cycles)” value ([2]; 80.0 ng/mL) was 5.6% and the “Stability (RE, %) 23°C–28°C/24 h” value ([2]; 720.0 ng/mL) was 8.7%. The “Stability (RE, %) −20°C/30 day” value ([2]; 720.0 ng/mL) was −4.7%, the “Stability (RE, %) Freeze-thaw (3 cycles)” value ([2]; 720.0 ng/mL) was −5.1% and the “stability in rat plasma under four tested conditions” value ([2]; three freeze/thaw cycles, −20°C for 30 days, 23°C to 28°C for 24 h, postextraction 4°C for 24 h, stable if deviation within ± 15%) was “stable”.
In the case of CC(C)(O)[C@@H]1CC[C@](C)([C@H]2[C@@H](O)C[C@@]3(C)[C@@H]4C[C@H](O[C@@H]5O[C@H](CO)[C@@H](O)[C@H](O)[C@H]5O)[C@H]5C(C)(C)[C@@H](O[C@@H]6OC[C@@H](O)[C@H](O)[C@H]6O)CC[C@@]56C[C@@]46CC[C@]23C)O1 [astragaloside IV], the “effect on Tmax, Cmax, and AUC0-t of PUR” value [3] is listed as “significantly reduce”.
In the case of CC1(C)[C@@H](O[C@H]2O[C@H](C(=O)O)[C@@H](O)[C@H](O)[C@H]2O[C@@H]2O[C@H](C(=O)O)[C@@H](O)[C@H](O)[C@H]2O)CC[C@]2(C)[C@H]3C(=O)C=C4[C@@H]5C[C@@](C)(C(=O)O)CC[C@]5(C)CC[C@@]4(C)[C@]3(C)CC[C@@H]12 [glycyrrhizin], the “effect on Tmax, Cmax, and AUC0-t of PUR” value [3] is listed as “significantly reduce”.
